Assay results as given in PubChem BioAssay (NCI).
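These data come from cells grown in 96-well plates and exposed to compound for 48 hours at five concentrations. TGI denotes the concentration required for complete inhibition of growth.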

How the values were obtained:
Experiment in all cases: DTP human tumour cell line panel, 48 h
EKVX NSCLC = system: EKVX NSCLC
M14 melanoma = system: M14 melanoma
SK-OV-3 ovarian = system: SK-OV-3 ovarian
RPMI-8226 leukemia = system: RPMI-8226 leukemia
ACHN renal = system: ACHN renal
MCF7 breast = system: MCF7 breast
CCRF-CEM leukemia = system: CCRF-CEM leukemia
SW-620 colon = system: SW-620 colon
HL-60(TB) leukemia = system: HL-60(TB) leukemia
OVCAR-4 ovarian = system: OVCAR-4 ovarian
U251 CNS = system: U251 CNS
NCI-H23 lung = system: NCI-H23 lung
SK-MEL-28 melanoma = system: SK-MEL-28 melanoma
OVCAR-5 ovarian = system: OVCAR-5 ovarian
LOX IMVI melanoma = system: LOX IMVI melanoma
TK-10 renal = system: TK-10 renal
A549 NSCLC = system: A549 NSCLC
CAKI-1 renal = system: CAKI-1 renal
NCI-H522 lung = system: NCI-H522 lung
HOP-92 NSCLC = system: HOP-92 NSCLC

| Structure (SMILES) | TGI (EKVX NSCLC) [µM] | TGI (M14 melanoma) [µM] | TGI (SK-OV-3 ovarian) [µM] | TGI (RPMI-8226 leukemia) [µM] | TGI (ACHN renal) [µM] | TGI (MCF7 breast) [µM] | TGI (CCRF-CEM leukemia) [µM] | TGI (SW-620 colon) [µM] | TGI (HL-60(TB) leukemia) [µM] | TGI (OVCAR-4 ovarian) [µM] | TGI (U251 CNS) [µM] | TGI (NCI-H23 lung) [µM] | TGI (SK-MEL-28 melanoma) [µM] | TGI (OVCAR-5 ovarian) [µM] | TGI (LOX IMVI melanoma) [µM] | TGI (TK-10 renal) [µM] | TGI (A549 NSCLC) [µM] | TGI (CAKI-1 renal) [µM] | TGI (NCI-H522 lung) [µM] | TGI (HOP-92 NSCLC) [µM] |
| --- | --- | --- | --- | --- | --- | --- | --- | --- | --- | --- | --- | --- | --- | --- | --- | --- | --- | --- | --- | --- |
| CC(=O)OC12c3ccccc3C(c3ccccc31)C1C(=O)N(c3ccccc3O)C(=O)C12 (configuration not stated) | > 100 | > 100 | > 100 | > 100 | > 100 | > 100 | > 100 | > 100 | > 100 | > 100 | > 100 | > 100 | > 100 | > 100 | > 100 | > 100 | > 100 | > 100 | – | – |
| C=CC(C)(C)c1c(OC)oc2ccc(OC)c(C)c2c1=O | > 100 | > 100 | > 100 | > 100 | > 100 | > 100 | > 100 | > 100 | > 100 | – | > 100 | > 100 | > 100 | > 100 | > 100 | > 100 | > 100 | > 100 | > 100 | – |
| CC1NC(=O)c2c(-c3ccccc3)nn(-c3ccccc3)c2NC1=O (configuration not stated) | > 100 | > 100 | > 100 | > 100 | > 100 | > 100 | > 100 | > 100 | – | > 100 | > 100 | > 100 | > 100 | > 100 | > 100 | > 100 | > 100 | > 100 | > 100 | > 100 |
| Nc1ccc(-c2nnc(-c3c(Cl)c(Cl)c(Cl)c(Cl)c3-c3nc4ccc(C(=O)c5ccccc5)cc4[nH]3)o2)cc1 | 87.7 | 34.8 | 84.2 | 31.8 | > 100 | 76.2 | 70.3 | > 100 | – | > 100 | 47.4 | > 100 | > 100 | 89 | > 100 | 77.6 | > 100 | > 100 | 47.9 | > 100 |
| CC(=O)OCC(OC(C)=O)C(OC(C)=O)C(/C=N\Nc1nc2ccccc2c(=O)[nH]1)OC(C)=O (configuration not stated) | > 100 | > 100 | > 100 | > 100 | > 100 | > 100 | > 100 | > 100 | > 100 | – | > 100 | > 100 | > 100 | > 100 | > 100 | > 100 | > 100 | > 100 | – | > 100 |
| CC(=O)OC12c3ccccc3C(c3ccccc31)C1C(=O)N(Nc3ccccc3)C(=O)C12 (configuration not stated) | > 100 | > 100 | > 100 | > 100 | > 100 | > 100 | > 100 | > 100 | > 100 | > 100 | > 100 | > 100 | > 100 | > 100 | > 100 | > 100 | > 100 | > 100 | – | – |
| O=C(c1ccccc1)c1ccc(N2C(=O)/C(=C/c3cccc([N+](=O)[O-])c3)N=C2c2ccccc2)c(N2C(=O)/C(=C/c3cccc([N+](=O)[O-])c3)N=C2c2ccccc2)c1 | > 100 | > 100 | > 100 | > 100 | > 100 | > 100 | – | > 100 | 15.8 | > 100 | > 100 | – | > 100 | > 100 | > 100 | > 100 | > 100 | > 100 | – | > 100 |
| Clc1ccc(-c2cn3c(nc4ccccc43)c(/C=C/c3cccs3)n2)cc1 | – | > 100 | > 100 | > 100 | > 100 | > 100 | > 100 | > 100 | > 100 | > 100 | > 100 | > 100 | > 100 | > 100 | > 100 | > 100 | > 100 | – | – | > 100 |
| CC1(C)OC[C@@H]([C@H](C=O)OCc2ccccc2)O1 | > 100 | > 100 | > 100 | > 100 | > 100 | > 100 | > 100 | > 100 | – | > 100 | > 100 | > 100 | > 100 | > 100 | > 100 | > 100 | > 100 | – | – | > 100 |
| CCOC(=O)C(=O)N=Nc1c(O)[nH]c2ccccc12 | > 100 | > 100 | > 100 | > 100 | > 100 | > 100 | > 100 | > 100 | – | > 100 | > 100 | > 100 | > 100 | > 100 | > 100 | > 100 | > 100 | > 100 | > 100 | – |
| CCOC(=O)c1ccc(N(C)Cc2cnc3nc(N)nc(N)c3n2)cc1 | > 100 | 97.2 | 51.4 | > 100 | 20.2 | 49.8 | > 100 | > 100 | > 100 | – | > 100 | > 100 | 83.8 | > 100 | > 100 | 35.4 | – | 45 | – | – |
| CC(=O)c1cc2sc3ccccc3c2[nH]1 | – | > 100 | > 100 | > 100 | > 100 | > 100 | – | > 100 | – | > 100 | > 100 | > 100 | > 100 | > 100 | – | > 100 | > 100 | > 100 | > 100 | > 100 |
| Cn1c(=O)oc2cc(C(=O)CN3CCN(Cc4ccc5c(c4)OCO5)CC3)c(Cl)cc21 | – | – | > 100 | > 100 | > 100 | > 100 | > 100 | – | > 100 | – | > 100 | > 100 | – | > 100 | > 100 | – | – | > 100 | – | – |
